Earlier results as cited in patent US7309799B2 (Collegium Pharmaceutical, Inc., priority 2004, dated 2007).

Experiments:
gastric mucosa = conditions: preclinical studies
reuptake of serotonin = reuptake of serotonin (Homo sapiens, UniProt P31645); conditions: compared with noradrenaline reuptake
[1] = test system: SNL-induced hypersensitivity; conditions: rats; for reversal of mechanical hypersensitivity: SNL
[2] = test system: neurotransmitter receptor

Sequence of reuptake of serotonin (P31645 whole entry): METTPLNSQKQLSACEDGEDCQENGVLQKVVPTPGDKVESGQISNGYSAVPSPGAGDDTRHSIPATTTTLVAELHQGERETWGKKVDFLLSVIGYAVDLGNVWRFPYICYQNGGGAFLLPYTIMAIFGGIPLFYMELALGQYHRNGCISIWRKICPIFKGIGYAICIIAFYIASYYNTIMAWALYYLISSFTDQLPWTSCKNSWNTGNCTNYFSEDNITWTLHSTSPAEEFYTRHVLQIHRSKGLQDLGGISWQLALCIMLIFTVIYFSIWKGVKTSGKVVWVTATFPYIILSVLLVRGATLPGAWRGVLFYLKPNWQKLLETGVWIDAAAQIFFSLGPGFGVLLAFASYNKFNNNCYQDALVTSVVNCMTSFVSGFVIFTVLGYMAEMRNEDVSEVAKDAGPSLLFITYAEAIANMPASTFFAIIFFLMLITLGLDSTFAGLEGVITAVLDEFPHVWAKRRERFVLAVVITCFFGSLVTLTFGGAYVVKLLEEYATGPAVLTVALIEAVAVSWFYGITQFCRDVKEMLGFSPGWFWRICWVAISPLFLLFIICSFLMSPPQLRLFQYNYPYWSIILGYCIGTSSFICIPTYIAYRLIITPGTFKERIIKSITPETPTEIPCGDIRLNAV

| SMILES | general and cardiovascular tolerability versus TCAs (database of over 3300 patients) | incidence of dysuria versus SSRIs (human, in vivo) | tolerability versus SSRIs (human, in vivo) | nausea and vomiting (dose-limiting gastrointestinal disturbances) (oral administration) | effect on gastric mucosa (gastric mucosa) | potency of inhibition of the reuptake of serotonin (reuptake of serotonin) | effectiveness in reversing SNL induced thermal hypersensitivity compared with duloxetine [1] | reversal of SNL-induced thermal hypersensitivity [1] | reversal of mechanical hypersensitivity [1] | affinity for any neurotransmitter receptor studied [2] |
| --- | --- | --- | --- | --- | --- | --- | --- | --- | --- | --- |
| CCN(CC)C(=O)[C@@]1(c2ccccc2)C[C@H]1CN.Cl (racemic) [milnacipran, racemic cis-2-(aminomethyl)-N,N-diethyl-1-phenyl-cyclopropanecarboxamide] | superior to those of the tricyclic antidepressants (TCAs) | higher incidence of dysuria | comparable to that of the SSRIs | increasing frequency after doses of 100 mg or above | direct irritant effect | essentially equal potency | more effective | both reversed | Neither milnacipran nor duloxetine reversed | no detectable affinity |
| CNCC[C@H](Oc1cccc2ccccc12)c1cccs1 [duloxetine] |  |  |  |  |  |  |  | both reversed | Neither milnacipran nor duloxetine reversed |  |
